For one assay, the target named is T1, rat ASCT2 (Rattus norvegicus, UniProt D3ZJ25).
T1 construct: The coding region of the cDNA was subcloned into the EcoRI site of the pBK-CMV vector; expressed in transfected cells; host or cells: HEK293 (human embryonic kidney), transient transfection, pBK-CMV vector
T1 sequence (D3ZJ25 1-555): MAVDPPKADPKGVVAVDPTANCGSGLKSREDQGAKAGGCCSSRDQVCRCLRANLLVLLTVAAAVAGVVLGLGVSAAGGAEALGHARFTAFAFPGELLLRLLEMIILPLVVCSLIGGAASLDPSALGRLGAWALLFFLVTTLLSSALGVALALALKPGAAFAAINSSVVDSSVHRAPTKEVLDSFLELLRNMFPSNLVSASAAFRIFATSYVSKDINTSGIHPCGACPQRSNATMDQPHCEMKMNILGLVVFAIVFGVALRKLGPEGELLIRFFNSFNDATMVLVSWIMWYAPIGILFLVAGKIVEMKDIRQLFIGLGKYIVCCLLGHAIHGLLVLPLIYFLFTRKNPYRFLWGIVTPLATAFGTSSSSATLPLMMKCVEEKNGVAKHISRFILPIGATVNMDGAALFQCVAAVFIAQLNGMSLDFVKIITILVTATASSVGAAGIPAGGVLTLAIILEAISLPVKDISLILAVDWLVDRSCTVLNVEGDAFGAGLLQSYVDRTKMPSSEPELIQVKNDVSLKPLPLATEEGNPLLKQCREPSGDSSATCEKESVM
Nature of the assay: Whole-cell patch-clamp recording of ASCT2-associated anion current in transfected HEK293 cells. Type of assay: cell-based. The following applies: for Km: apparent Km for the active compounds from anion current dose response, called Ki in text for the inhibitors L-DOPS and γ-FBP; for Imax, maximum currents relative to 1 mM alanine: whole-cell anion current, membrane potential 0 mV, internal 130 mM NaSCN and 10 mM alanine, negative = outward current (inhibitor). An excerpt: We used transporter-mediated anion current as a measure of transport/inhibition activity […] We have previously shown that anion current is a measure of transport activity, due to the kinetic coupling of transport and anion flux, and this fact is also well established for the homologous glutamate transporters, which have a much more rigorously determined pharmacology. Anion current is activated when the transporter visits certain states in the transport cycle, such as the fully Na^+/substrate occupied state (substrate-induced anion conductance), or the Na^+-bound state (leak conductance). Thus, transported substrates induce anion current and non-transported inhibitors block the leak anion current. […] Functional characterization by patch clamping is a powerful approach when combined with virtual screening that prioritizes molecules from large libraries, but precludes screening of large amounts of compounds due to its labor-intensive nature.
cDNA coding for rat ASCT2 was kindly provided by S. Bröer. The coding region of the cDNA was subcloned into the EcoRI site of the pBK-CMV vector (Stratagene). The cDNA construct was used to transiently transfect human embryonic kidney cells (HEK293, ATCC No. CGL 1573) with leptrime reagent (Polyplus, Ilkrich, France). Transfection was performed as detailed in the supplier’s instructions. Electrophysiological recordings were performed 24–48 h after transfection.
ASCT2-associated whole-cell currents were recorded with an Adams & List EPC7 amplifier (HEKA, Lambrecht, Germany) using voltage-clamp conditions. Open-tip electrode resistances were 2–3 MΩ and the series resistance (R S) was 5–8 MΩ. R S was not compensated in the recordings, as compensation had no effect on the magnitude of the observed currents. The extracellular bath solution contained (in mM): 140 NaMES, 2 MgGluconate2, 2 CaGluconate2, and 10 HEPES (MES = methanesulfonic acid, pH 7.4 / NaOH). The pipette solution contained (in mM): 130 NaSCN, 2 MgCl2, 10 EGTA, 10 HEPES, and 10 L-alanine/cysteine (pH 7.3 / NaOH). Using this intracellular solution, the transporters operate in the Na^+/alanine exchange mode. Here, external alanine is exchanged with internal alanine in the absence of net transport. The exchange mode is associated with the activation of an uncoupled anion current, which was used as an indirect measure of transport activity. The currents were low pass filtered at 3 kHz (EPC7 built-in filter) and digitized with a digitizer board (Digidata 1200, Axon Instruments, Foster City, CA, USA) at a sampling rate of 10–50 kHz (controlled by software, Axon PClamp7). All experiments were performed at room temperature. Rapid solution exchange was essentially performed as described previously. Briefly, substrates and inhibitors were applied to the ASCT2-expressing HEK293 cells with a quartz tube (350 μm tube diameter) positioned at a distance of ≈0.5 mm to the cell. The linear flow rate of the solutions emerging from the opening of the tube was approximately 5–10 cm/s.
Background: Patch clamp records ionic current or voltage across a cell membrane.

In assay [1] the test system is ASCT2 protein levels in C8161 cells. Description: Western blotting of ASCT2 protein levels. It counts as cell-based, human. The note with it: 5 mM, 48 hours. As to the method:
To ensure these inhibitory effects were not due to changes in ASCT2 protein levels, we examined ASCT2 protein levels by Western blotting 48 hours after incubation with chloroalanine (5 mM), AOC (5 mM) or γ-FBP (5 mM) (Fig 8J). […] For example, γ-FBP is an inhibitor that deprives the cancer cells from nutrients and the activator Chloroalanine can potentially be further developed as a cytotoxic ligand.
Cells (5 × 10^5 per well) were seeded in 24 well plates, allowed to adhere overnight, and then incubated in the presence of 5 mM chloroalanine, AOC or γ-FBP for 48 hours. Cells were detached using Tryple and lysed in lysis buffer (50 μL; 20 mM Tris-HCl, 150 mM NaCl, 1% Triton X-100, 0.5% Na deoxycholate, 0.1% SDS) with protease inhibitor Cocktail III (Bioprocessing Biochemical, California). Protein was measured using micro-BCA method (Pierce) and loaded onto a 4–12% gel (Life Technologies), electrophoresed, and transferred to PVDF membrane. The membrane was blocked with 2.5% (w/v) BSA in PBS-Tween20, and incubated with primary (ASCT2, Cell Signaling; GAPDH, Abcam) and secondary antibodies. Secondary HRP-labeled antibodies (Millipore) were detected using chemiluminescence reagents (Pierce) on a Kodak imager (Kodak).
(In general: Immunoblotting shows a protein as a band on a membrane.)

Assay [2] relates to C8161 human melanoma cells. Nature of the assay: Annexin V/propidium iodide apoptosis assay by flow cytometry. The following applies: 5 mM, 48 hours. It counts as cell-based. The method, then: Glutamine is a conditionally essential amino acid required for cancer cell growth, being used as fuel source for the TCA cycle, and a carbon and nitrogen source for macromolecule production. We therefore examined cell viability in the presence of chloroalanine (5 mM), AOC (5 mM) and γ-FBP (5 mM) using an MTT assay in C8161 cells (Methods).
Cells (5 × 10^5 per well) were seeded in 24 well plates, allowed to adhere overnight, and then incubated in the presence of 5 mM chloroalanine, AOC or γ-FBP for 48 hours. Cells were detached using Tryple and resuspended in 300 μL of binding buffer (HEPES-buffered PBS supplemented with 2.5 mM calcium chloride) with Annexin V-APC (BD) and incubated for 15 min in the dark at room temperature. Propidium iodide solution (5 μg/mL) was added, and the cells were analyzed using the BD LSRFortessa and FlowJo software.
For orientation: Flow cytometry measures light scatter and fluorescence of single cells or particles in a stream.

Like-named read-outs stand apart in the source and are kept apart here.

A word on the Km: it is the concentration of substrate that gives half-maximal velocity. For the molecule `NC1(C(=O)O)COC1`, on rat ASCT2, the Km amounted to 220 ± 20 µM and the “Imax, maximum currents relative to 1 mM alanine” value amounted to 1.17 ± 0.13. Besides, in assay [1], the ASCT2 protein levels entry was “no change”. The “Apoptosis (early Annexin V+PI-, late Annexin V+PI+)” value (“Apoptosis” for short) in assay [2] is listed as “neither AOC nor γ-FBP led to a significant increase”.
Consider `O=C(O)C1CC(Cc2ccccc2F)CN1` (centres unmarked) [γ-FBP], for which the Ki on rat ASCT2 (absence of alanine, read-out: apparent Ki in the absence of alanine) was 87 ± 22 µM. Further, at rat ASCT2 (alanine + compound), the “Concentration down to which alanine activation is alleviated” value is at least 100 µM. Moreover, the Ki on rat ASCT2 (alanine-induced currents (100 μM alanine), read-out: Ki in the presence of alanine) was found to be 250 ± 75 µM. Also, on rat ASCT2, the Km stood at 87 ± 22 µM and the “Imax, maximum currents relative to 1 mM alanine” value is -0.64 ± 0.13. Further, the Response relative to saturating [alanine] on rat ASCT2 (outward current) was -0.64 ± 0.13. The ASCT2 protein levels entry in assay [1] is on record as “no change”. In addition, the “Apoptosis” value in assay [2] is “neither AOC nor γ-FBP led to a significant increase”.
As to `NC(CCl)C(=O)O` (centres unmarked) [Chloroalanine], on rat ASCT2, the Michaelis-Menten constant (Km) was determined as 900 ± 120 µM and the “Imax, maximum currents relative to 1 mM alanine” value is on record as 1.28 ± 0.22. Besides, on rat ASCT2 (whole-cell current, result in words), the “Anion current response / ligand character” value is “activated inwardly-directed anion currents”. Further, the ASCT2 protein levels result in assay [1] was “reduced the levels of ASCT2 protein”. Also, the “Apoptosis” value in assay [2] is on record as “significantly increased apoptosis”.

Source of the values: publication PMC4596572, “Ligand Discovery for the Alanine-Serine-Cysteine Transporter (ASCT2, SLC1A5) from Homology Modeling and Virtual Screening” (PLoS Computational Biology, 2015).
